Assay results: patent US8084479B2, “Thiazole compounds and methods of use” (Amgen Inc., priority 2006, dated 2011)

Each compound was assayed against PKBα (Homo sapiens, UniProt P31749) (assay: PKB kinase assay (P33-labeled ATP, peptide substrate, filter plate)). Conditions: PKBα enzyme (full length or kinase domain with pleckstrin domain deleted).
Format: biochemical
From the text: The kinase assay for evaluating PKB activity comprises active PKB enzymes, a PKB specific substrate, and P^33-labeled ATP. […] The phosphorylated substrate was captured by a phosphocellulose membrane filter plate (MLLIPORE) and measured by a Wallac Microbeta liquid scintillation counter (Perkin Elmer).

Sequence of PKBα (P31749 118-480 limits assumed): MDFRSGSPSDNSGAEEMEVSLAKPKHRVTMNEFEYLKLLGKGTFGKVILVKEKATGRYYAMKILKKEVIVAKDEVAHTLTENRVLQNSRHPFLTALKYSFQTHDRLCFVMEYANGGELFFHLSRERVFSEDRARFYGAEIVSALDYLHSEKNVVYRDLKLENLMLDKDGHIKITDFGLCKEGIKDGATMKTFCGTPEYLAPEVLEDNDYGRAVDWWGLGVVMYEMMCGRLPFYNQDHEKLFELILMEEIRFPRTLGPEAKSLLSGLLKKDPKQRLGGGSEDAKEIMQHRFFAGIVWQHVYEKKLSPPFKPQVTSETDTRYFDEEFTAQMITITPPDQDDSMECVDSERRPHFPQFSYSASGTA

SMILES	IC50 [nM]
N[C@H](CNc1ncc(-c2ccc3[nH]c(=O)oc3c2)s1)Cc1ccc(C(F)(F)F)cc1 [Example 40, 6-(2-((S)-2-amino-3-(4-(trifluoromethyl)phenyl)propylamino)thiazol-5-yl)benzo[d]oxazol-2(3H)-one]	< 50
N[C@H](CNc1ncc(-c2ccc3cnccc3c2)s1)Cc1ccc(C(F)(F)F)nc1 [Example 170]	< 50
CC(C)(O)C#Cc1nc(NC[C@@H](N)Cc2ccc(C(F)(F)F)cc2)sc1-c1ccc2cnccc2c1 [Example 79, 4-(2-((S)-2-Amino-3-(4-(trifluoromethyl)phenyl)propylamino)-5-(isoquinolin-6-yl)thiazole-4-yl)-2-methylbut-3-yn-2-ol]	50 to 1000
N[C@H](CNc1ncc(-c2ccc3cn[nH]c3c2)s1)Cc1ccc(C(F)(F)F)cc1 [Example 48, N—((S)-2-amino-3-(4-(trifluoromethyl)phenyl)propyl)-5-(1H-indazol-6-yl)thiazol-2-amine]	50 to 1000
N[C@H](CNc1nc(C2CCCO2)c(-c2ccc3cnccc3c2)s1)Cc1ccc(C(F)(F)F)cc1 (stereo partly drawn) [Example 198, N—((S)-2-Amino-3-(4-(trifluoromethyl)phenyl)propyl)-5-(isoquinolin-6-yl)-4-(tetrahydrofuran-2-yl)thiazol-2-amine]	< 50
N[C@H](CNc1ncc(-c2nc3ccncc3s2)s1)Cc1ccc(Cl)cc1 [Example 99, N—((S)-2-Amino-3-(4-chlorophenyl)propyl)-5-(thiazolo[5,4-c]pyridin-2-yl)thiazol-2-amine]	< 50
N[C@H](CNc1ncc(-c2ccc3c(c2)CC(=O)N3)s1)Cc1ccc(Cl)cc1 [Example 54, 5-(2-((S)-2-Amino-3-(4-chlorophenyl)propylamino)thiazol-5-yl)indolin-2-one]	< 50
COC[C@@H](c1ccc(C(F)(F)F)cc1)[C@H](N)CNc1ncc(-c2ccc3c(c2)CC(=O)N3)s1 [Example 241, 5-(2-((2S,3S)-2-amino-4-methoxy-3-(4-(trifluoromethyl)phenyl)butylamino)thiazol-5-yl)indolin-2-one]	< 50
N[C@H](CNc1ncc(-c2ccc3c(c2)CC(=O)N3)s1)Cc1ccc2ccccc2c1 [Example 201, 5-(2-((S)-2-amino-3-(naphthalen-2-yl)propylamino)thiazol-5-yl)indolin-2-one]	50 to 1000
N[C@H](CNc1ncc(-c2ccc3[nH]c(=O)oc3c2)s1)Cc1ccc2ccccc2c1 [Example 204, 6-(2-((S)-2-amino-3-(naphthalen-2-yl)propylamino)thiazol-5-yl)benzo[d]oxazol-2(3H)-one]	< 50
c1ccc(CNc2ncc(-c3nc4ccncc4s3)s2)cc1 [Example 28, N-benzyl-5-(thiazolo[5,4-c]pyridin-2-yl)thiazol-2-amine]	1000 to 10000
C[C@@H](c1ccc(C(F)(F)F)cc1)[C@H](N)CNc1ncc(-c2ccc3cnccc3c2)s1 [Example 110, N-((2S,3S)-2-Amino-3-(4-(trifluoromethyl)phenyl)butyl)-5-(isoquinolin-6-yl)thiazol-2-amine]	< 50
NC(=O)c1ccc(-c2cnc(NC[C@@H](N)Cc3ccc(C(F)(F)F)cc3)s2)cc1 [Example 49, (S)-4-(2-(2-amino-3-(4-(trifluoromethyl)phenyl)propylamino)thiazol-5-yl)benzamide]	1000 to 10000
N[C@H](CNc1ncc(-c2ccc3c(c2)/C(=C/c2ccco2)C(=O)N3)s1)Cc1c[nH]c2ccccc12 (stereo in doubt) [Example 72, (E)- and (Z)-5-(2-((S)-2-amino-3-(1H-indol-3-yl)propylamino)thiazol-5-yl)-3-(furan-2-ylmethylene)indolin-2-one ditrifluoroacetates]	50 to 1000
N[C@H](CNc1ncc(-c2ccc3c(c2)CCC(=O)N3)s1)Cc1ccc(C(F)(F)F)cc1 [Example 36, 6-(2-((S)-2-amino-3-(4-(trifluoromethyl)phenyl)propylamino)thiazol-5-yl)-3,4-dihydroquinolin-2(1H)-one]	1000 to 10000
C[C@@H](Nc1ncc(-c2ccc3[nH]c(=O)n(C)c3c2)s1)[C@@H](N)Cc1ccc(C(F)(F)F)cc1 [Example 232, 6-(2-((2R,3S)-3-amino-4-(4-(trifluoromethyl)phenyl)butan-2-ylamino)thiazol-5-yl)-1-methyl-1H-benzo[d]imidazol-2(3H)-one]	50 to 1000
N[C@H](CNc1ncc(-c2ccc3c(c2)CC(=O)N3)s1)Cc1ccc(Cl)s1 [Example 212, 5-(2-((S)-2-amino-3-(5-chlorothiophen-2-yl)propylamino)thiazol-5-yl)indolin-2-one]	50 to 1000
N[C@H](CNc1nc(C(F)(F)CO)c(-c2ccc3[nH]c(=O)oc3c2)s1)Cc1ccc(C(F)(F)F)cc1 [Example 135, 6-(2-((S)-2-Amino-3-(4-(trifluoromethyl)phenyl)-propylamino)-4-(1,1-difluoro-2-hydroxyethyl)thiazol-5-yl)benzo[d]oxazol-2(3H)-one]	1000 to 10000
C/C=C/[C@@H](c1ccc(C(F)(F)F)cc1)[C@H](N)CNc1ncc(-c2ccc3cnccc3c2)s1 [Example 154, N-((2S,3S,E)-2-amino-3-(4-(trifluoromethyl)phenyl)hex-4-enyl)-5-(isoquinolin-6-yl)thiazol-2-amine]	< 50
N[C@H](CNc1ncc(-c2ccc3[nH]c(=O)oc3c2)s1)Cc1ccc(Cl)s1 [Example 213, 6-(2-((S)-2-amino-3-(5-chlorothiophen-2-yl)propylamino)thiazol-5-yl)benzo[d]oxazol-2(3H)-one]	50 to 1000
COc1ccc(CC(N)CNc2ncc(-c3ccc4cnccc4c3)s2)cc1F (stereo not drawn) [Example 131, N-(2-Amino-3-(3-fluoro-4-methoxyphenyl)propyl)-5-(isoquinolin-6-yl)thiazol-2-amine]	50 to 1000
NC(CNc1ncc(-c2ccc3[nH]c(=O)oc3c2)s1)Cc1ccc(C(F)(F)F)cc1F (stereo not drawn) [Example 178, 6-(2-(-2-amino-3-(2-fluoro-4-(trifluoromethyl)phenyl)propylamino)thiazol-5-yl)benzo[d]oxazol-2(3H)-one]	< 50
C[C@@H](c1ccccc1)[C@H](N)CNc1ncc(-c2ccc3cnccc3c2)s1 [Example 91, N-((2S,3S)-2-Amino-3-phenylbutyl)-5-(isoquinolin-6-yl)thiazol-2-amine]	50 to 1000
COCc1nc(NC[C@@H](N)Cc2ccc(C(F)(F)F)cc2)sc1-c1ccc2[nH]c(=O)oc2c1 [Example 59, 6-(2-((S)-2-amino-3-(4-(trifluoromethyl)phenyl)propylamino)-4-(methoxymethyl)thiazol-5-yl)benzo[d]oxazol-2(3H)-one]	< 50
N[C@H](CNc1ncc(-c2ccc3cnccc3c2)s1)Cc1ccc2ccccc2c1 [Example 202, N—((S)-2-amino-3-(naphthalen-2-yl)propyl)-5-(isoquinolin-6-yl)thiazol-2-amine]	< 50
N[C@H](CNc1ncc(-c2ccc3cnccc3n2)s1)Cc1ccc(C(F)(F)F)cc1 [Example 68, N—((S)-2-amino-3-(4-(trifluoromethyl)phenyl)propyl)-5-(1,6-naphthyridin-2-yl)thiazol-2-amine]	< 50
COc1cc(C[C@H](N)CNc2ncc(-c3ccc4c(c3)CNC4=O)s2)cnc1C(F)(F)F [Example 238, 5-(2-((S)-2-amino-3-(5-methoxy-6-(trifluoromethyl)pyridin-3-yl)propylamino)thiazol-5-yl)isoindolin-1-one]	50 to 1000
